According to US8071368B2, “Methods for promoting growth and survival of insulin-secreting cells” (Alizé Pharma SAS, priority 2001, dated 2011):
Non-standard residues stand in square brackets, D forms with d. Residues, ends and D or L forms follow the SMILES beside them. No end group written: not given here. *: point of attachment. dTrp(2-Me) = Cc1[nH]c2ccccc2c1C[C@@H](N)C(=O)O; Octanoyl = CCCCCCCC(=O)*

Columns and labels:
[1] = system: HIT-T15 cells; experiment: HIT-T15 cell proliferation, BrdU incorporation; format: cell-based; conditions: for effect on unacylated ghrelin-induced cell proliferation: preincubation, unacylated ghrelin 100 nM, NF449 10 μM, PTX 50 ng/ml
Description: This effect was similar to that observed in cells cultured in normal conditions, i.e. in the presence of serum (15% HS, 2.5% FBS).
To investigate the signaling pathways involved in ghrelin mitogenic effect, the cells were preincubated (30 min) with NF449, a selective Gαs protein-coupled receptor antagonist.
In FIG. 8A to 8E, HIT-T15 cells were cultured in serum-free medium (Control) for 24 h, UAG alone or with NF449 and pertussis toxin (PTX) were added to the incubation medium for further 24 h. In FIG. 8A, cell proliferation was measured by BrdU uptake in cells cultured in the presence or absence of serum, UAG at the concentrations indicated. […] Data are expressed as the percentage relative to control and are the means±SEM of eight replicates within a single representative experiment that was repeated at least 3 times (*P<0.05,**P<0.01).
(§1) In FIG. 9B, apoptosis is evaluated by counting condensed/fragmented Hoechst-stained nuclei (SF, serum-free medium). Values are expressed as percent of apoptotic cells and are the mean±SEM of duplicate determinations (500 cells each) of three independent experiments (*P<0.05; **P<0.01). In FIG. 9C, cell proliferation is assessed by BrdU uptake (ELISA). The results are expressed as percent of control (serum starved cells) and are the mean±SEM of three independent experiments (*P<0.05,**P<0.01). FIG. 9D illustrates ghrelin secretion in HIT-T15 conditioned medium following exposure to either serum, SF±cytokines. The results are the mean±SEM of three independent experiments, each performed in quadruplicate (*P<0.05). In FIG. 9E, apoptosis is determined by Hoechst 33258 of cells cultured for 48 h in the presence of serum or in SF medium alone with addition of an anti-ghrelin antibody (α-ghrelin Ab), (*P<0.05,**P<0.01 vs 0 μg/ml α-ghrelin Ab in each condition).

[2] = system: HIT-T15 cell membranes; experiment: 125I-[Tyr4]-unacylated ghrelin binding to HIT-T15 cell membranes; conditions: unlabeled competitor
Excerpt: Binding is expressed as percentage of control (specific binding in the absence of unlabeled competitor);

[3] = preprandial GHS administration in normal human beings with GH receptor antagonist pegvisomant; format: in vivo; conditions: 1 μg/Kg i.v. preprandial
Excerpt: Because in this study GH-action was blocked by pegvisomant, these GHS-mediated metabolic changes on the “gastro-entero-hepatic axis” must be direct and non-pituitary mediated.

[4] = ghrelin and GH rhythms during three days fasting, GHRP-6 bolus, healthy volunteers; format: in vivo, human; conditions: 1 μg/kg on the 3rd day of fasting
Description: In order to understand the diurnal rhythms of ghrelin and GH secretion during fasting, a study was conducted on 10 healthy human volunteers with normal body mass index. […] Fasting rapidly induces a diurnal ghrelin rhythm that is followed by a similar GH rhythm. […] This phenomenon cannot be explained by changes in insulin, glucose or free fatty acid levels. Thus it appears that the metabolic effects of ghrelin are distinct from its effects on GH secretion.
By the use of the GH receptor antagonist pegvisomant, indirect evidence was provided that these changes in serum ghrelin levels are not regulated by the GH receptor. Finally, it was shown that administration of the synthetic GHS, GHRP-6, produced a decrease in peak ghrelin levels, but this effect was only observed after several hours, indicating the existence of a long-loop feedback system of GHS's on ghrelin secretion.

[5] = co-administration of unacylated ghrelin and ghrelin in normal human volunteers; format: in vivo; conditions: 1 μg/kg iv at 0 min with ghrelin 1 μg/kg iv
Excerpt: Thus it appears that unacylated ghrelin is acting as a functional antagonist of the peripheral actions of ghrelin.

[6] = 16 h intravenous infusion of unacylated ghrelin in healthy males; format: in vivo, human; conditions: 1.0 μg/Kg/h iv 16 h
[7] = system: HIT-T15 cells; experiment: HIT-T15 cell survival, MTT assay; format: cell-based; conditions: serum-free conditions and in the presence of cytokines
[8] = system: HIT-T15 cells; experiment: HIT-T15 apoptosis, Hoechst 33258 staining; format: cell-based
Excerpt: Apoptosis is the main form of pancreatic β-cell death in animal models of type 1 diabetes mellitus. […] Moreover, they partially lost their capacity to form islet-like structures (FIG. 9A, upper panel, and 9B). Cytokines further increased apoptosis (˜27%), cells appearing smaller and unable to form islets (FIG. 9A, lower panel, and FIG. 9B). […] Accordingly, others have reported that ghrelin exerts proliferative and antiapoptotic effects at high concentrations […] in different cell types.
as §1

[9] = system: caspase-3; experiment: caspase-3 activation in HIT-T15 cells; format: cell-based; conditions: serum-starved and cytokine-treated cells, data not shown
[10] = system: cAMP; experiment: intracellular cAMP concentration in HIT-T15 cells; format: cell-based; conditions: 100 nM, with IBMX
Description: Initially, the unacylated ghrelin-induced cAMP intracellular variation was examined.
cAMP induction by ghrelin was then evaluated at 15 min in either serum-free medium alone or with addition of IFN-γ/TNF-α in the presence of IBMX.
The results are the mean±SEM of three independent experiments performed in triplicate (*P<0.05 vs basal time point). FIG. 10B illustrates the cAMP levels in cells incubated in the presence of serum or in serum-free (SF) medium±unacylated ghrlein (100 nM each) alone or with IFN-γ/TNF-α combination (100 ng/ml and 200 ng/ml respectively). Data are the mean±SEM of at least three independent experiments performed in triplicate (*P<0.05).

[11] = glucose and insulin after single intravenous human ghrelin in healthy young male volunteers; format: in vivo; conditions: 1.0 μg/kg i.v. at 0', vs placebo

O=C(Nc1cc(C(=O)Nc2ccc(S(=O)(=O)O)cc2S(=O)(=O)O)cc(C(=O)Nc2ccc(S(=O)(=O)O)cc2S(=O)(=O)O)c1)Nc1cc(C(=O)Nc2ccc(S(=O)(=O)O)cc2S(=O)(=O)O)cc(C(=O)Nc2ccc(S(=O)(=O)O)cc2S(=O)(=O)O)c1 [NF449, reference compound]
effect on unacylated ghrelin-induced cell proliferation [1]: complete blockade

Cc1[nH]c2ccccc2c1C[C@@H](NC(=O)[C@@H](N)Cc1cnc[nH]1)C(=O)N[C@@H](C)C(=O)N[C@@H](Cc1c[nH]c2ccccc12)C(=O)N[C@H](Cc1ccccc1)C(=O)N[C@@H](CCCCN)C(N)=O [hexarelin] (H-H[dTrp(2-Me)]AW[dF]K-NH2)
competition with 125I-labeled [Tyr4]-unacylated ghrelin for binding sites [2]: competed

GHRP-6
serum insulin concentrations ([3]; in the presence of pegvisomant): impressive increase in serum insulin concentrations | postprandial serum glucose levels ([3]; only in the presence of pegvisomant): induces a postprandial increase in serum glucose levels | peak ghrelin levels [4]: attenuated peak ghrelin levels in the afternoon

NH2Gly-Ser-Ser-Phe-Leu-Ser-Pro-Glu-His-Gln-Arg-Val-Gln-Gln-Arg-Lys-Glu-Ser-Lys-Lys-Pro-Pro-Ala-Lys-Leu-Gln-Pro-Arg (H-GSSFLSPEHQRVQQRKESKKPPAKLQPR) [unacylated ghrelin]
ghrelin-induced decrease in insulin levels [5]: totally prevented | ghrelin-induced increase in glucose [5]: totally prevented | FFA profile ([6]; post-prandially and at fasting): reduced both post-prandially (p<0.01) and at fasting | glucagon profile ([6]; vs saline): significantly modified the profile of all parameters, except glucagon | total insulin AUC ([6]; vs saline): did not modify | GH AUC ([6]; vs saline, p<0.01): lower | cortisol AUC ([6]; vs saline, p<0.01): lower | free fatty acid (FFA) AUC ([6]; vs saline, p<0.01): decreased | glucose AUC ([6]; vs saline, p<0.01): decreased | early insulin response to dinner and breakfast ([6]; dinner p<0.01, breakfast p<0.05): enhanced | competition with 125I-labeled [Tyr4]-unacylated ghrelin for binding sites [2]: competed | cell proliferation in the presence of IFN-γ/TNF-α ([1]; 100 nM, cytokines 100 ng/ml and 200 ng/ml, 24 h): dramatically restored cell proliferation | cell proliferation (BrdU incorporation) ([1]; serum-free medium, 1 pm to 1 μm, 24 h): significantly and dose-dependently induced cell proliferation | cell viability (MTT) [7]: significantly increased cell viability | serum-starvation-induced apoptosis ([8]; 100 nm, serum-deprived medium): almost completely prevented | apoptosis triggered by the IFN-γ/TNF-α combination, percent of apoptotic cells ([8]; 100 nm, cytokines alone ~27%): ~12% | lowest significantly active concentration, antiapoptotic effect ([8]; data not shown): 1 nm | caspase-3 activation [9]: significantly reduced | cAMP levels over time ([10]; serum starved cells, 5 to 60 min): transient increase within 5 min | cAMP at 15 min ([10]; serum-free medium alone or with IFN-γ/TNF-α): significantly up-regulated cAMP

ghrelin: gastric hormone of 28 amino acids with an n-octanoyl ester at its third serine residue (GSS(Octanoyl)FLSPEHQRVQQRKESKKPPAKLQPR)
Δ glucose [11]: elevation in glucose | Δ insulin [11]: acute decrease in insulin

pertussis toxin [reference compound]
effect on unacylated ghrelin-induced cell proliferation [1]: had no effect
